Consider 20 molecules from patent US9127003B2, “2-(azaindol-2-yl)benzimidazoles as PAD4 inhibitors” (Glaxo Group Limited, priority 2012, dated 2015).

“And” between values parts separate entries of the source, which are not always exact repeats. Equal entries are not always repeated. Structures can show the parent of a compound that is named as a salt.

In the first assay the target is T1, Recombinant human PAD2 (residues 1-665) (Homo sapiens, UniProt Q9Y2J8).
T1 construct: Recombinant human PAD2 (residues 1-665); 6His-FLAG (N); made in house; host or cells: baculovirus-infected Sf9 insect cells
T1 sequence (Q9Y2J8 whole entry, the tested form may be a part): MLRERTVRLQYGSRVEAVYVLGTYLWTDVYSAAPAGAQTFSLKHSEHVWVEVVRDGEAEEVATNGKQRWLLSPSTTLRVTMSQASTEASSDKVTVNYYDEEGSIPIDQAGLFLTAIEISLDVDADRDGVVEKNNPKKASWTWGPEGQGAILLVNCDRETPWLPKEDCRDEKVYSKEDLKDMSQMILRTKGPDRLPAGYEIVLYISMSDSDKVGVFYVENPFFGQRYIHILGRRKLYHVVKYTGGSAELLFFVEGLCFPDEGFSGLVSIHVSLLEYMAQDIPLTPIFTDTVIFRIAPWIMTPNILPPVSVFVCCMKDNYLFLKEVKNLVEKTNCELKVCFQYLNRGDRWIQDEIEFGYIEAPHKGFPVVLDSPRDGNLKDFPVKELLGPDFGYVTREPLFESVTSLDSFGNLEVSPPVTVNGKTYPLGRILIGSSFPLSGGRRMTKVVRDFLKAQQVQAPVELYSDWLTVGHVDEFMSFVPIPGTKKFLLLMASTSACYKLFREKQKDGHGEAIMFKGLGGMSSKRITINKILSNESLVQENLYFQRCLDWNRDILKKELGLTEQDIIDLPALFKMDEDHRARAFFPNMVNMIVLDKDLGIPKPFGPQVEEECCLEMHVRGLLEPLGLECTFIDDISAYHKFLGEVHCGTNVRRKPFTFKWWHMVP
Description: PAD2 enzyme assay (NH3 release, BAEE substrate, fluorescence). The format is biochemical. The following applies: PAD2 enzyme assay above or similar assays; read-out: mean pIC50 (converted). As to the method: Recombinant human PAD2 (residues 1-665) was expressed in baculovirus-infected Sf9 insect cells as an N-terminal 6His-FLAG-tagged fusion protein. Activity of the final product was determined using a FLINT NH3 release assay.
8 μl of PAD2 enzyme diluted to an assay concentration of 30 nM in assay buffer (100 mM HEPES, 50 mM NaCl, 2 mM DTT, 7.5% glycerol and 1.5 mM CHAPS pH 8), and added to wells containing 0.1 μl of various concentrations of compound or DMSO vehicle (0.8% final) in a Greiner high volume 384 well black plate. Following 30 mins pre-incubation at room temperature, the reaction was initiated by the addition of 4 μl of substrate buffer containing 180 uM N-a-benzoyl-L-arginine ethyl ester (BAEE), 100 mM HEPES, 50 mM NaCl, 240 uM CaCl2 (2H2O) and 2 mM DTT, pH 8.0. The reaction was stopped after 90 mins with the addition of 38 μl stop/detection buffer containing 50 mM EDTA, 2.6 mM phthalaldehyde and 2.6 mM DTT. Assay incubated at room temperature for 90 mins before measuring fluorescent signal (λex 405/λem 460) on an Envision plate reader (Perkin Elmer Life Sciences, Waltham, Mass., USA)
On to `CCn1c(-c2nc3cc(C(=O)N4CCC[C@@H](N)C4)ccc3n2C)cc2cccnc21` [Example 2B, (R)-(3-Aminopiperidin-1-yl)(2-(1-ethyl-1H-pyrrolo[2,3-b]pyridin-2-yl)-1-methyl-1H-benzo[d]imidazol-5-ylmethanone hydrochloride], for which the IC50 was 63.1 to 79.4 µM.

Take `Cn1c(-c2cc3cccnc3n2CC2CC2)nc2cc(C(=O)N3CCC[C@@H](N)C3)ccc21` [Example 5B, (R)-(3-Aminopiperidin-1-yl)(2-(1-(cyclopropylmethyl)-1H-pyrrolo[2,3-b]pyridin-2-yl)-1-methyl-1H-benzo[d]imidazol-5-yl)methanone, hydrochloride]: the IC50 was 63.1 to 79.4 µM and > 79.4 µM.

Take `CCn1c(-c2nc3cc(C(=O)N4CCC[C@@H](N)C4)cc(OC)c3n2C)cc2cccnc21` [Example 9B, (R)-(3-Aminopiperidin-1-yl)(2-(1-ethyl-1H-pyrrolo[2,3-b]pyridin-2-yl)-7-methoxy-1-methyl-1H-benzo[d]imidazol-5-yl)methanone, hydrochloride]: the IC50 was 63.1 to 79.4 µM and > 79.4 µM.

The target of the next assay is T2, Recombinant human PAD4 (residues 1-663) (Homo sapiens, UniProt Q9UM07).
T2 construct: Recombinant human PAD4 (residues 1-663); GST (N, cleaved yes); made in house; host or cells: E. coli
T2 sequence (Q9UM07 whole entry, the tested form may be a part): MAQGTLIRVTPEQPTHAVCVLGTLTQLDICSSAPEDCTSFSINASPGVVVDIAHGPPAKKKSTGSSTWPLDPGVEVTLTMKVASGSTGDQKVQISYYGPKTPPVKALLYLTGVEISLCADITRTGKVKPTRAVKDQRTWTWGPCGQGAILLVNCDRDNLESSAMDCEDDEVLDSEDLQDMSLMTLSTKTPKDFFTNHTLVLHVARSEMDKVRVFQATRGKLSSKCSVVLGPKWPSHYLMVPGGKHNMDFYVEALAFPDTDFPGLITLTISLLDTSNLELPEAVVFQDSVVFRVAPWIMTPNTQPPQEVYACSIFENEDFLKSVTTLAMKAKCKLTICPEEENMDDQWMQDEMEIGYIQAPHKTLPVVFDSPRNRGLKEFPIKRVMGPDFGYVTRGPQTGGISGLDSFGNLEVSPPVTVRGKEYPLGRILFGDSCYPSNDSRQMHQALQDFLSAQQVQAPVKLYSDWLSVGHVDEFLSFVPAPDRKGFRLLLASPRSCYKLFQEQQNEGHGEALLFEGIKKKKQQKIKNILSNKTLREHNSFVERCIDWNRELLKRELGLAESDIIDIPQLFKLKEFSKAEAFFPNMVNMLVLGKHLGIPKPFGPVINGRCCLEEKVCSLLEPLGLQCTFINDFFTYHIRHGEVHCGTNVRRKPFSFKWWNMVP
Kind of assay: PAD4 enzyme assay (NH3 release, BAEE substrate, fluorescence). The format is biochemical. Particulars: PAD4 enzyme assay above (Conditions A or B) or similar assays; read-out: mean pIC50 (converted). As to the method:
Recombinant human PAD4 (residues 1-663) was expressed in E. coli as an N-terminal GST-tagged fusion protein. During purification of the protein, the GST tag was removed by cleavage with PreScission Protease (GE Healthcare). Activity of the final product was determined using a FLINT NH3 release assay.
(§1) 8 μl of PAD4 enzyme diluted to an assay concentration of 75 nm in assay buffer (a).: (100 mM HEPES, 50 mM NaCl, 2 mM DTT and 0.6 mg/mIBSA pH 8), or in assay buffer (b).: (100 mM HEPES, 50 mM NaCl, 2 mM DTT, 7.5% glycerol and 1.5 mM CHAPS pH 8), and added to wells containing 0.1 μl of various concentrations of compound or DMSO vehicle (0.8% final) in a Greiner high volume 384 well black plate. Following 30 mins pre-incubation at room temperature, the reaction was initiated by the addition of 4 μl of substrate buffer containing 3 mM N-a-benzoyl-L-arginine ethyl ester (BAEE), 100 mM HEPES, 50 mM NaCl, 600 uM CaCl2 (2H2O) and 2 mM DTT, pH 8.0. The reaction was stopped after 100 mins with the addition of 38 μl stop/detection buffer containing 50 mM EDTA, 2.6 mM phthalaldehyde and 2.6 mM DTT. Assay incubated at room temperature for 90 mins before measuring fluorescent signal (λex 413/λem 476) on an Envision plate reader (Perkin Elmer Life Sciences, Waltham, Mass., USA)
as §1, with “of 30 nM” for “of 75 nm”, “buffer” for “buffer (a).:”, “mg/mIBSA” for “mg/mIBSA pH 8), or in assay buffer (b).: (100 mM HEPES, 50 mM NaCl, 2 mM DTT, 7.5% glycerol and 1.5 mM CHAPS”, “after 60” for “after 100”, “(λex 405/λem 460)” for “(λex 413/λem 476)”
For the molecule `COc1cc(C(=O)N2C[C@@H](N)CC[C@H]2C)cc2nc(-c3cc4cccnc4n3CC3CC3)n(C)c12` (single isomer, unassigned) [Example 23, ((cis)-5-Amino-2-methylpiperidin-1-yl)(2-(1-(cyclopropylmethyl)-1H-pyrrolo[2,3-b]pyridin-2-yl)-7-methoxy-1-methyl-1H-benzo[d]imidazol-5-yl)methanone, hydrochloride], the IC50 is 0.0316 to 10 µM.

On to `COc1cc(C(=O)N2C[C@H](N)CC[C@@H]2C)cc2nc(-c3cc4cccnc4n3CC3CC3)n(C)c12` (single isomer, unassigned) [Example 24, ((cis)-5-Amino-2-methylpiperidin-1-yl)(2-(1-(cyclopropylmethyl)-1H-pyrrolo[2,3-b]pyridin-2-yl)-7-methoxy-1-methyl-1H-benzo[d]imidazol-5-yl)methanone, hydrochloride], for which the IC50 was 0.0316 to 10 µM.

As to `CCn1c(-c2nc3cc(C(=O)N4CCCC(N)C4)ccc3n2C)cc2cnccc21` (stereo not drawn) [Example 1, 1-{[2-(1-Ethyl-1H-pyrrolo[3,2-c]pyridin-2-yl)-1-methyl-1H-benzimidazol-5-yl]carbonyl}-3-piperidinamine], the IC50 was 0.0316 to 10 µM.

For the molecule `CCn1c(-c2nc3cc(C(=O)N4CCC[C@@H](N)C4)ccc3n2C)cc2cccnc21` [Example 2A, (R)-(3-Aminopiperidin-1-yl)(2-(1-ethyl-1H-pyrrolo[2,3-b]pyridin-2-yl)-1-methyl-1H-benzo[d]imidazol-5-yl)methanone], the IC50 is 0.0316 to 10 µM.

Take `CCn1c(-c2nc3cc(C(=O)N4CCC[C@@H](N)C4)ccc3n2C)cc2ccncc21` [Example 3, (R)-(3-Aminopiperidin-1-yl)(2-(1-ethyl-1H-pyrrolo[2,3-c]pyridin-2-yl)-1-methyl-1H-benzo[d]imidazol-5-yl)methanone]: the IC50 is 0.0316 to 10 µM.

On to `Cn1c(-c2cc3cccnc3n2CC(F)(F)F)nc2cc(C(=O)N3CCC[C@@H](N)C3)ccc21` [Example 4A, (R)-(3-Aminopiperidin-1-yl)(1-methyl-2-(1-(2,2,2-trifluoroethyl)-1H-pyrrolo[2,3-b]-pyridin-2-yl)-1H-benzo[d]imidazol-5-yl)methanone], for which the IC50 was 0.0316 to 10 µM.

With `Cn1c(-c2cc3cccnc3n2CC2CC2)nc2cc(C(=O)N3CCC[C@@H](N)C3)ccc21` [Example 5B, (R)-(3-Aminopiperidin-1-yl)(2-(1-(cyclopropylmethyl)-1H-pyrrolo[2,3-b]pyridin-2-yl)-1-methyl-1H-benzo[d]imidazol-5-yl)methanone, hydrochloride], the IC50 is 0.0316 to 10 µM and 0.2 µM.

Consider `CCn1c(-c2nc3cc(C(=O)N4CCC[C@@H](N)C4)ccc3n2C)cc2cc(OC)cnc21` [Example 6, (R)-(3-Aminopiperidin-1-yl)(2-(1-ethyl-5-methoxy-1H-pyrrolo[2,3-b]pyridin-2-yl)-1-methyl-1H-benzo[d]imidazol-5-yl)methanone], for which the IC50 was 0.0316 to 10 µM.

For `CCn1c(-c2nc3cc(C(=O)N4CCC[C@@H](N)C4)ccc3n2C)cc2cc(OC)ncc21` [Example 7, (R)-(3-Aminopiperidin-1-yl)(2-(1-ethyl-5-methoxy-1H-pyrrolo[2,3-c]pyridin-2-yl)-1-methyl-1H-benzo[d]imidazol-5-yl)methanone], the IC50 was 0.0316 to 10 µM.

`CCn1c(-c2nc3cc(C(=O)N4CCC[C@@H](N)C4)ccc3n2C)cc2cc(O)cnc21` [Example 8, 2-(5-{[(3R)-3-Amino-1-piperidinyl]carbonyl}-1-methyl-1H-benzimidazol-2-yl)-1-ethyl-1H-pyrrolo[2,3-b]pyridin-5-ol]: the IC50 is 0.0316 to 10 µM.

As for `CCn1c(-c2nc3cc(C(=O)N4CCC[C@@H](N)C4)cc(OC)c3n2C)cc2cccnc21` [Example 9A, (R)-(3-Aminopiperidin-1-yl)(2-(1-ethyl-1H-pyrrolo[2,3-b]pyridin-2-yl)-7-methoxy-1-methyl-1H-benzo[d]imidazol-5-yl)methanone], the IC50 was 0.0316 to 10 µM.

`COc1cc(C(=O)N2CCC[C@@H](N)C2)cc2nc(-c3cc4cccnc4n3CC(F)(F)F)n(C)c12` [Example 11A, (R)-(3-Aminopiperidin-1-yl)(7-methoxy-1-methyl-2-(1-(2,2,2-trifluoroethyl)-1H-pyrrolo[2,3-b]pyridin-2-yl)-1H-benzo[d]imidazol-5-yl)methanone]: the IC50 is 0.0316 to 10 µM.

For the molecule `CCn1c(-c2nc3cc(C(=O)N4CCCC(N)C4)ccc3n2C)cc2cccnc21` (stereo not drawn) [Example 12, (3-Aminopiperidin-1-yl)(2-(1-ethyl-1H-pyrrolo[2,3-b]pyridin-2-yl)-1-methyl-1H-benzo[d]imidazol-5-yl)methanone], the IC50 is 0.0316 to 10 µM.

In the case of `CCn1c(-c2nc3cc(C(=O)N4CCC[C@@H](N)C4)cc(OC(F)(F)F)c3n2C)cc2cccnc21` [Example 15, (R)-(3-Aminopiperidin-1-yl)(2-(1-ethyl-1H-pyrrolo[2,3-b]pyridin-2-yl)-1-methyl-7-(trifluoromethoxy)-1H-benzo[d]imidazol-5-yl)methanone], the IC50 is 0.0316 to 10 µM.

`CCC(C)Cn1c(-c2nc3cc(C(=O)N4CCC[C@@H](N)C4)cc(OC)c3n2C)cc2cccnc21` (stereo partly drawn) [Example 17, ((R)-3-Aminopiperidin-1-yl)(7-methoxy-1-methyl-2-(1-(2-methylbutyl)-1H-pyrrolo[2,3-b]pyridin-2-yl)-1H-benzo[d]imidazol-5-yl)methanone]: the IC50 is 0.0316 to 10 µM.

Take `CCn1c(-c2nc3cc(C(=O)N4CCC[C@@H](N)C4)cc(OC)c3n2CCOC)cc2cccnc21` [Example 18, (R)-(3-Aminopiperidin-1-yl)(2-(1-ethyl-1H-pyrrolo[2,34]pyridin-2-yl)-7-methoxy-1-(2-methoxyethyl)-1H-benzo[d]imidazol-5-yl)methanone, hydrochloride]: the IC50 was 0.0316 to 10 µM.

In the case of `CCn1c(-c2nc3cc(C(=O)N4CCC[C@@H](N)C4)cc(OC)c3n2CC(C)C)cc2cccnc21` [Example 20, (R)-(3-Aminopiperidin-1-yl)(2-(1-ethyl-1H-pyrrolo[2,3-b]pyridin-2-yl)-1-isobutyl-7-methoxy-1H-benzo[d]imidazol-5-yl)methanone, hydrochloride], the IC50 was 0.0316 to 10 µM.

Regarding `COc1cc(C(=O)N2CCC[C@@H](N)C2)cc2nc(-c3cc4cccnc4n3CC(C)(C)OC)n(C)c12` [Example 21, (R)-(3-Aminopiperidin-1-yl)(7-methoxy-2-(1-(2-methoxy-2-methylpropyl)-1H-pyrrolo[2,3-b]pyridin-2-yl)-1-methyl-1H-benzo[d]imidazol-5-yl)methanone], the IC50 is 0.0316 to 10 µM.
